Assay results reported in patent US7183092B2, “Modified luciferase” (priority 2003, dated 2007).
Entries after “also recorded” stand apart in the source; their conditions may differ. One block for each molecule: values may come before it.

What was measured:
Assay type in all cases: biochemical, Photinus pyralis
[1] = Luciferase activity in the presence of nonionic detergent Triton X-100; settings: FIG. 4; Triton X-100 up to 5%, 20 ng purified luciferase, 0% ethanol, 33 mM DTT
Experimental: (§1) The stability of CNBLuc03-06 luciferase (SEQ ID NO: 4), both in purified form and in cell lysates, in the presence of a range of potential inhibitors was assayed. The basic assay contained 40 mM Tris-Acetate at pH 7.8, 1 mM MgSO4, 0.1 mM EDTA (ethylenediaminetetraacetic acid), 500 μM D-Luciferin and 500 μM ATP. Ethanol, DTT (dithiothreitol) and potential inhibitors were included at the concentrations stated.
(§2) The stability of CNBLuc03-06 luciferase (SEQ ID NO: 4) in the presence of Triton X-100 and SDS was determined using 20 ng of purified luciferase per sample using the basic assay conditions and in the presence of 0% ethanol and 33 mM DTT. The effect of detergents on wild type luciferase was determined previously by W. J. Simpson and J. R. M. Hammond (W. J. Simpson and J. R. M. Hammond, (1991) Journal of Bioluminescence & Chemiluminescence, 6. 97–106, incorporated herein by reference). They reported the anionic detergents inhibit luciferase activity, and cationic detergents and nonionic detergents increase the reaction rate when the concentration of detergent exceeds critical micelle concentration (CMC) value but only up to certain concentrations.

[2] = Stability of CNBLuc03-06 luciferase activity in the presence of HPV chemicals; settings: FIG. 3, 1 mM DTT, 2.5% ethanol
Experimental: as §1
This effect was confirmed by repeated experiments. With 20 ng purified CNBLuc03-06 luciferase (SEQ ID NO: 4) and in the presence of 2.5% ethanol, 1 mM DTT and 86 mM chloroform an activation of approximately 50% was measured, compared with the absence of chloroform.
The capacity of a variety HPV chemicals to inhibit or activate both wild type luciferase and CNBLuc03-06 luciferase (SEQ ID NO: 4) activity compared to controls without HPV chemicals was tested. Higher concentrations of chloroform (172 mM), methylene chloride (318 mM) or toluene (2.7 mM) were used. The basic assay contained 20ng of purified CNBLuc03-06, 1 mM DTT and 2.5% ethanol. CNBLuc03-06 luciferase (SEQ ID NO: 4) was exposed to each chemical for less than 5 minutes before measuring the light output.

[3] = Stability of CNBLuc03-02 luciferase activity in the presence of HPV solvents; settings: FIG. 2, 33 mM DTT, 10% ethanol; for inhibition of luciferase activity by toluene: 0.5% toluene
Experimental: as §1, with “CNBLuc03-02” for “CNBLuc03-06”, “2)” for “4), both in purified form and in cell lysates,”
Toluene inhibited CNBLuc03-02 luciferase (SEQ ID NO: 2) activity by approximately 40% and wild type luciferase activity by approximately 80%.

[4] = Stability of CNBLuc03-02 luciferase activity in the presence of chloroform; settings: 5% ethanol, 33 mM DTT, 10 μl cell lysates; for inhibition of luciferase activity by 0.8% CHCl3: 0.8% chloroform; for original activity maintained: FIG. 1, different concentrations of chloroform
Experimental: as §1, with “CNBLuc03-02” for “CNBLuc03-06”, “2)” for “4), both in purified form and in cell lysates,”

[5] = Luciferase activity in the presence of anionic detergent SDS; settings: FIG. 5; 20 ng purified luciferase, 0% ethanol, 33 mM DTT
Experimental: as §1, §2
SDS was used for testing the effect of anionic detergents.

[6] = Luciferase activity at different pHs; settings: up to pH 11
Experimental: 20 ng of enzyme was used for each reaction. The pH was maintained at 7.8 by 40 mM Tris-acetate buffer and 33 mM DTT was added to each reaction. Both substrates, MGATP and D-Luciferin were saturated at 1 mM and 500 μM respectively. The values were normalized against the highest RLU (relative light units) at each pH optimum for comparison purpose. CNBLuc03-06 luciferase (SEQ ID NO: 4) has optimum pH of 9, but the high enough activity is retained at lower pHs in which enables us to use this mutant luciferase in case a wide range of pH is required for the assay (between 8–11).

[7] = Specific activity of luciferase in the absence of DTT; settings: 0 mM DTT, pH 7.8, 1 mM ATP, 500 μM D-Luciferin, three replicates
Experimental: Dithiothreitol (DTT) is an enzyme stabilizing agent used to reduce disulfide bonds (break the bonds) that are not normally formed under physiological conditions. Both purified wild type luciferase and CNBLuc03-06 luciferase (SEQ ID NO: 4) were diluted to 2 μg/ml in 40 mM Tris Acetate buffer at pH 7.8. The assay contained 40 mM Tris-Acetate at pH 7.8, 1 mM MgSO4, 0.1 mM EDTA, 500 μM D-Luciferin, 1 mM ATP, and 0 mM DTT. The light output was measured over time and three replicate measurements were made for each luciferase. The average value of the highest light output reading obtained over time was used to determine specific activity of each enzyme.

[8] = Quantitative in vitro screening of mutant luciferases with chloroform; settings: cell lysate supernatant
Experimental: Selected colonies from secondary screening were inoculated and grown in 5 ml LB broth containing 100 μg/ml ampicillin at 30° C. overnight. When the OD660 reached approximately 1, bacterial cells were harvested from 1.5 ml of culture by centrifugation for 3 min at 12,000 rpm (Eppendorf centrifuge model 5415D). Harvested cells were resuspended in 1 ml of 40 mM Tris-Acetate buffer, pH 7.8, and sonicated for 10 seconds using a Branson Sonifer 450, Duty cycle-40 and output control-4. The activity of each luciferase sample, prepared using 10 μl of supernatant from a subsequent centrifugation of sonicated bacterial cell culture, was tested in 200 μl total reaction volume by a Luminometer (Perkin Elmer, model Victor II). Each assay contained 40 mM Tris-Acetate, 1 mM MgSO4, 0.1 mM EDTA (ethylenediaminetetraacetic acid), 33 mM DTT (dithiothreitol), 500 μM D-Luciferin, 10% Ethanol and 500 μM ATP at pH 7.8. Some screening assays also contained 68.8 mM chloroform (0.8% vol.).
Different mutant luciferases were compared quantitatively by determining the percentage (%) inhibition of luciferase activity in the presence of chloroform relative to a control without chloroform. The specific activities of chloroform-tolerant mutants were generally lower as compared to wild type. […] The nucleotide sequence of CNBLuc03-02 is SEQ ID No: 1. The polypeptide sequence of the product of SEQ ID No: 1 is SEQ ID No: 2.

Molecule: wild type luciferase: amino acid sequence of luciferase of the species Photinus pyralis (SEQ ID NO: 6) [reference compound]
effect of Triton X-100 on luciferase activity [1]: activated by the nonionic detergent, Triton X-100, up to final concentration of 1.25%; also recorded: increased until 1.25% then it started decreasing
inhibition compared to controls, chloroform ([2]; chloroform 172 mM, exposure less than 5 minutes): about 70%
inhibition compared to controls, methylene chloride ([2]; methylene chloride 318 mM): about 70%
inhibition compared to controls, toluene ([2]; toluene 2.7 mM): about 20%
inhibition of luciferase activity by toluene ([3]; 10 μl cell lysate): approximately 80%
inhibition of luciferase activity by 0.8% CHCl3 [4]: over 80%
original activity maintained [4]: about 20%
effect of SDS on luciferase activity [5]: inhibited luciferase activity significantly
activity at elevated pH [6]: completely inhibit
specific activity (highest light output) [7]: 2.9±1.6×10^9 RLU/mg enzyme/sec

inhibition of luciferase activity by HPV solvents other than toluene ([3]; 0.5% of CH2Cl2, hexane, xylene or heptane, 10 μl cell lysate): ≤ 15%
inhibition of luciferase activity by toluene ([3]; 10 μl cell lysate): approximately 40%
inhibition of luciferase activity by 0.8% CHCl3 [4]: ~30%
original activity maintained [4]: 80%
inhibition of luciferase activity in the presence of chloroform relative to a control without chloroform ([8]; screening, 68.8 mM chloroform (0.8% vol.), 10% ethanol, 33 mM DTT): inhibited much less by chloroform
B1: CNBLuc03-02: modified Photinus pyralis luciferase: serine replaced by threonine at amino acid 239 and alanine replaced by threonine at amino acid 532 (protein, listed as Photinus pyralis)
chain: MEDAKNIKKGPAPFYPLEDGTAGEQLHKAMKRYALVPGTIAFTDAHIEVNITYAEYFEMSVRLAEAMKRYGLNTNHRIVVCSENSLQFFMPVLGALFIGVAVAPANDIYNERELLNSMNISQPTVVFVSKKGLQKILNVQKKLPIIQKIIIMDSKTDYQGFQSMYTFVTSHLPPGFNEYDFVPESFDRDKTIALIMNSSGSTGLPKGVALPHRTACVRFSHARDPIFGNQIIPDTAILTVVPFHHGFGMFTTLGYLICGFAVVLMYRFEEELFLRSLQDYKIQSALLVPTLFSFFAKSTLIDKYDLSNLHEIASGGAPLSKEVGEAVAKRFHLPGIRQGYGLTETTSAILITPEGDDKPGAVGKVVPFFEAKVVDLDTGKTLGVNQRGELCVRGPMIMSGYVNNPEATNALIDKDGWLHSGDIAYWDEDEHFFIVDRLKSLIKYKGYQVAPAELESILLQHPNIFDAGVAGLPDDDAGELPAAVVVLEHGKTMTEKEIVDYVASQVTTAKKFRGGVVFVDEVPKGLTGKLDTRKIREILIKAKKGGKSKL
inhibition by HPV solvents compared with wild type ([3]; 0.5% of each solvent (CH2Cl2, toluene, hexane, xylene, heptane)): not inhibited as much as wild-type luciferase
specific activity compared to wild type ([8]; screening assay): comparable activity
